These results are taken from ChEMBL document CHEMBL3414572, “Identification of fused 16β,17β-oxazinone-estradiol derivatives as a new family of non-estrogenic 17β-hydroxysteroid dehydrogenase type 1 inhibitors” (Eur J Med Chem, 2015).

Activity calls are given as the source filed them. The rule behind the calls is not given here.

For assay [1], the target named is T1, 17-beta-hydroxysteroid dehydrogenase type 1 (Homo sapiens) (UniProt P14061).
T1 sequence (whole entry): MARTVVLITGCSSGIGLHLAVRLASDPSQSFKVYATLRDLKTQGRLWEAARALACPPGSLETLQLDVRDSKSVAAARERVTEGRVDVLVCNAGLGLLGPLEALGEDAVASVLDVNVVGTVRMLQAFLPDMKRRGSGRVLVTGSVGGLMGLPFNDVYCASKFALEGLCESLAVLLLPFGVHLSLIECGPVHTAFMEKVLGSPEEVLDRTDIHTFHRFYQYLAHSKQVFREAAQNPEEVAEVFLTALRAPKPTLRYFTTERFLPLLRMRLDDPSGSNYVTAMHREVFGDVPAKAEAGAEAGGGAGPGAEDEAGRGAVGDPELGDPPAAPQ
Nature of the assay: Inhibition of 17 beta-HSD1 in human T47D cells assessed as inhibition of transformation of [14C]E1 to [14C]E2 at 10 uM after overnight incubation. It counts as cell-based.

The target of assay [2] is T2, 17-beta-hydroxysteroid dehydrogenase type 1 (Homo sapiens, UniProt P14061).
T2 sequence (P14061 whole entry): T1 sequence (whole entry)
Description: Inhibition of 17 beta-HSD1 in human T47D cells assessed as inhibition of transformation of [14C]E1 to [14C]E2 after overnight incubation. It counts as cell-based.

Assay [3] deals with T47D. Nature of the assay: Estrogenic activity in human T47D cells assessed as cell proliferation at 0.1 uM incubated for 7 days with replacement of media in every 2 days by CellTitre-Glo assay. It counts as functional.
The subject of assay [4] is T47D. Description: Estrogenic activity in human T47D cells assessed as cell proliferation at 0.5 uM incubated for 7 days with replacement of media in every 2 days by CellTitre-Glo assay. It is filed as functional.
Assay [5] concerns the target T3, 17-beta-hydroxysteroid dehydrogenase type 2 (Homo sapiens) (UniProt P37059).
T3 sequence (whole entry): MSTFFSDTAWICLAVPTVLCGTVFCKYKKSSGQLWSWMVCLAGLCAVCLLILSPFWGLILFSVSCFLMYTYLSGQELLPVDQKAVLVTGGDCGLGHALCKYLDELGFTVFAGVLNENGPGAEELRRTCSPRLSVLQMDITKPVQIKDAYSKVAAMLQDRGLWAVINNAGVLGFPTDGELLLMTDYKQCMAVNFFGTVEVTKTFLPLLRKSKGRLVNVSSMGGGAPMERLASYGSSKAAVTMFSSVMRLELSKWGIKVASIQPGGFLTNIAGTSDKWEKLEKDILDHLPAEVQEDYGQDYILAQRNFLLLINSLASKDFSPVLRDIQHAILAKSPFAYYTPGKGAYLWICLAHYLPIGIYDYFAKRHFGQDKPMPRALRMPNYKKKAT
Description: Inhibition of 17 beta-HSD2 (unknown origin) transfected in HEK293 cells using [14C]E2 as substrate at 1 uM. It is filed as cell-based.

In assay [6] the target is T3, 17-beta-hydroxysteroid dehydrogenase type 2 (Homo sapiens). Description: Inhibition of 17 beta-HSD2 (unknown origin) transfected in HEK293 cells using [14C]E2 as substrate at 10 uM. It is filed as cell-based.
The target of assay [7] is T4, Very-long-chain 3-oxoacyl-CoA reductase (Homo sapiens) (UniProt Q53GQ0).
T4 sequence (whole entry): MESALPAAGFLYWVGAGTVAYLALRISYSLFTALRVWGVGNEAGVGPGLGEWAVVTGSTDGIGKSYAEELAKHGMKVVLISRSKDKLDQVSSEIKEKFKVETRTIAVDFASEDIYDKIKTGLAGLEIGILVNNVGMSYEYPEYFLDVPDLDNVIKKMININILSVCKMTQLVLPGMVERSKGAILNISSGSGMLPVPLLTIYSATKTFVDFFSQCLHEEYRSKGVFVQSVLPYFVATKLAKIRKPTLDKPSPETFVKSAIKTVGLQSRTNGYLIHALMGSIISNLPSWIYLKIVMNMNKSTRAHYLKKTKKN
Description: Inhibition of 17 beta-HSD12 (unknown origin) at 10 uM.

Turning to `CCCCN1C(=O)O[C@H]2C(=C[C@H]3[C@@H]4CCc5cc(O)ccc5[C@H]4CC[C@]23C)[C@@H]1c1cccc(C(N)=O)c1`, the inhibition entry in assay [1] is “Active”. Besides, in assay [2], the IC50 is 1.4 µM. The result in the assay on T47D [3] and with T47D [4] was inactive. Further, the inhibition in assay [5] was determined as 10%; in assay [6], 15%. For the same compound, the inhibition result in assay [7] is “inactive”.
Consider `CCCCCCCCN1C(=O)O[C@@H]2[C@@]3(C)CC[C@@H]4c5ccc(O)cc5CC[C@H]4[C@@H]3C[C@]2(O)[C@@H]1c1cccc(C(N)=O)c1`, for which the inhibition result in assay [1] was “Active”.
Take `C[C@]12CC[C@@H]3c4ccc(O)cc4CC[C@H]3[C@@H]1CC[C@@H]2O` [ESTRADIOL]: the growth at 0.1 µM in the assay with T47D [3] (read-out: Activity) stood at 320%. Also, the growth at 0.5 µM with T47D [4] (read-out: Activity) is 380%.
`CCCCCCCCN1C(=O)O[C@H]2C(=C[C@H]3[C@@H]4CCc5cc(O)ccc5[C@H]4CC[C@]23C)[C@@H]1c1cccc(C(N)=O)c1`: the inhibition result in assay [1] is “Active”.
With `CCCCCCN1C(=O)O[C@@H]2[C@@]3(C)CC[C@@H]4c5ccc(O)cc5CC[C@H]4[C@@H]3C[C@]2(O)[C@@H]1c1cccc(C(N)=O)c1`, the inhibition result in assay [1] is “Active”. For the same compound, in assay [2], the IC50 came out at 6.6 µM. In addition, in the assay with T47D [4], the outcome was Active.
Consider `CCCCCCN1C(=O)O[C@H]2C(=C[C@H]3[C@@H]4CCc5cc(O)ccc5[C@H]4CC[C@]23C)[C@@H]1c1cccc(C(N)=O)c1`, for which the inhibition result in assay [1] was “Active”.
Still for that read-out and setting: the value for `CCN1C(=O)O[C@H]2C(=C[C@H]3[C@@H]4CCc5cc(O)ccc5[C@H]4CC[C@]23C)[C@@H]1c1cccc(C(N)=O)c1` was “Active”; that for `CCN1C(=O)O[C@@H]2[C@@]3(C)CC[C@@H]4c5ccc(O)cc5CC[C@H]4[C@@H]3C[C@]2(O)[C@@H]1c1cccc(C(N)=O)c1` was “Active”.
The same measure, in the same setting: the value for `CCCCN1C(=O)O[C@@H]2[C@@]3(C)CC[C@@H]4c5ccc(O)cc5CC[C@H]4[C@@H]3C[C@]2(O)[C@@H]1c1cccc(C(N)=O)c1` was “Active”.
